± gives the standard deviation of the reports.
glass transition temperature [°C]	SMILES
207.40	*Oc1ccc(NC(=O)c2cc(C(=O)Nc3ccc(*)cc3)c(C(=O)O)cc2C(=O)O)cc1 (repeat unit)
290.00	*c1ccc2c(c1)C(=O)N(c1ccc(N(c3ccc(/C=C/c4ccc([N+](=O)[O-])cc4)cc3)c3ccc(N4C(=O)c5ccc(C(*)(C(F)(F)F)C(F)(F)F)cc5C4=O)cc3)cc1)C2=O (repeat unit)
200.00	*c1ccc(OCCN(CC)c2ccc(C(C#N)=C(C#N)C#N)cc2)c(-c2cc(-c3ccccc3)c3cc(Oc4ccc5nc(*)cc(-c6ccccc6)c5c4)ccc3n2)c1 (repeat unit)
145.00	*c1ccc(Nc2ccc(C3(c4ccc(Nc5ccc(S(*)(=O)=O)cc5)c(F)c4)c4ccccc4-c4ccccc43)cc2F)cc1 (repeat unit)
50.00	*CC(*)C(=O)OCCCCCCCCCCCOc1ccc(C(=O)Oc2ccc(-c3ccc(OC(C)CCCCCC)cc3)cc2)cc1 (repeat unit)
68.00	*c1ccc(C(=O)OCCCCCCCCCCCCOC(=O)c2ccc(-c3nnc(*)s3)cc2)cc1 (repeat unit)
320.00	*c1cccc(-c2nc3cc(-c4ccc5nc(-c6ccccc6)c(*)nc5c4)ccc3nc2-c2ccccc2)c1 (repeat unit)
286.00	*C(=O)c1ccc2c(c1)C(=O)N(c1ccc(C(=O)c3ccc(C(=O)c4ccc(N5C(=O)c6ccc(*)cc6C5=O)cc4)cc3)cc1)C2=O (repeat unit)
246.00	*c1ccc(O)c(N2C(=O)c3ccc(Oc4ccc(C(C)(C)c5ccc(Oc6ccc7c(c6)C(=O)N(*)C7=O)cc5)cc4)cc3C2=O)c1 (repeat unit)
74.00	*CC(*)(C)C(=O)Oc1ccc(C(=O)Oc2ccc(Oc3ccccc3)cc2)cc1 (repeat unit)
220.00	*C(=O)OCCOC(=O)c1cccc(N2C(=O)c3ccc(*)cc3C2=O)c1 (repeat unit)
150.00	*c1ccc(/C=N/c2cccc(/N=C/c3ccc(-c4ccc(*)s4)cc3)c2)cc1 (repeat unit)
178.00	*Nc1cccc2c(NC(=O)Nc3cc(NC(*)=O)cc(C(=O)Nc4ccc5c(c4)C(=O)c4ccccc4C5=O)c3)cccc12 (repeat unit)
180.00	*Oc1ccc(C(=O)NNC(=O)c2cccc(C(=O)NNC(=O)c3ccc(OC(=O)c4cccc(C(*)=O)c4)cc3)c2)cc1 (repeat unit)
111.00	*CC(*)c1ccc(/C(Cc2ccccc2)=N/O)cc1 (repeat unit)
242.00	*c1ccc2c(c1)C(=O)N(c1ccc(Oc3ccc(C(=O)c4cccc(N5C(=O)c6ccc(C(*)(C(F)(F)F)C(F)(F)F)cc6C5=O)c4)cc3)cc1)C2=O (repeat unit)
230.00	*Oc1ccc(/C=N/c2ccc(/N=C/c3ccc(Oc4ccc(C(c5ccccc5)(c5ccccc5)c5ccc(*)cc5)cc4)cc3)cc2)cc1 (repeat unit)
152.00	*CCOC(=O)Nc1ccc(Cc2ccc(NC(=O)OCCOc3ccc(C4(c5ccc(O*)cc5)c5ccccc5-c5ccccc54)cc3)cc2)cc1 (repeat unit)
198.00	*c1ccc(Oc2ccc(C(C)(C)c3ccc(Oc4ccc(-c5nnc(*)n5-c5ccc(S(=O)(=O)c6ccccc6)cc5)cc4)cc3)cc2)cc1 (repeat unit)

glass transition temperature [°C]	SMILES
100.00	*OC(=O)c1ccc(C(C)(C)c2ccc(C(*)=O)cc2)cc1 (repeat unit)
180.00	*Oc1ccc(C(C)(C)c2ccc(OC(=O)c3ccc([Si](C)(C)c4ccc(C(*)=O)cc4)cc3)cc2)cc1 (repeat unit)
106.00	*Oc1ccc(OC(=O)c2ccc(C(*)=O)cc2Oc2ccc(F)cc2)cc1 (repeat unit)
56.00	*CCCOCCCCOCCCN1C(=O)c2ccc(C(=O)Oc3ccc(OC(=O)c4ccc5c(c4)C(=O)N(*)C5=O)cc3)cc2C1=O (repeat unit)
259.00	*c1ccc(-c2ccc(-n3c(-c4ccc(Oc5ccc(C(=O)c6ccc(C(=O)c7ccc(Oc8ccc(-c9nc%10ccccc%10n9*)cc8)cc7)cc6)cc5)cc4)nc4ccccc43)cc2)cc1 (repeat unit)
78.00	*Oc1ccc(CC(NC(=O)CCc2ccc(OC(=O)CCC(*)=O)cc2)C(=O)OCc2ccccc2)cc1 (repeat unit)
260.00	*c1ccc(C(c2ccc(-c3cc(-c4ccccc4)c4cc(Oc5ccc6nc(*)cc(-c7ccccc7)c6c5)ccc4n3)cc2)(C(F)(F)F)C(F)(F)F)cc1 (repeat unit)
116.00	*Oc1ccc(CNC(=O)CCCCC(=O)NCc2ccc(OC3COC4C(*)COC34)cc2)cc1 (repeat unit)
221.00	*Oc1ccccc1S(=O)(=O)c1ccc(*)cc1 (repeat unit)
25.00	*/C=N/c1ccc(C(=O)OCCCCOCCCCOCCCCOC(=O)c2ccc(/N=C/c3ccc(*)s3)cc2)cc1 (repeat unit)
249.00	*c1ccc(-c2ccc(Oc3ccc(C4(C)CC(C)(C)c5ccc(Oc6ccc(-c7ccc(N8C(=O)c9ccc(Oc%10ccc%11c(c%10)C(=O)N(*)C%11=O)cc9C8=O)cc7)cc6C(F)(F)F)cc54)cc3)c(C(F)(F)F)c2)cc1 (repeat unit)
381.00	*c1ccc(C(c2ccc(N3C(=O)c4cc(-c5ccc(C(C)(C)C)cc5)c(-c5cc6c(cc5-c5ccc(C(C)(C)C)cc5)C(=O)N(*)C6=O)cc4C3=O)cc2)(C(F)(F)F)C(F)(F)F)cc1 (repeat unit)
229.00	*c1ccc(Oc2ccc(C(=O)c3ccc(Oc4ccc(-c5cc(*)[nH]n5)cc4)cc3)cc2)cc1 (repeat unit)
220.00	*Oc1cccc(NC(=O)c2ccc([Si](C)(C)c3ccc(C(*)=O)cc3)cc2)c1 (repeat unit)
150.00	*Oc1ccc(/N=N/c2ccc(S(=O)(=O)c3ccc(/N=N/c4ccc(OC(=O)c5ccc(/N=N/c6ccc(C(*)=O)cc6)cc5)cc4)cc3[N+](=O)[O-])c([N+](=O)[O-])c2)cc1 (repeat unit)
200.00	*Oc1c(C)cc(C(=O)c2ccc(*)cc2)cc1C (repeat unit)
252.00	*Oc1ccc(C2(c3ccc(Oc4ccc(C(=O)c5ccc(*)cc5)cc4)cc3)c3ccccc3-c3ccccc32)cc1 (repeat unit)
73.00	*CC(*)(C)C(=O)OCCCCCCOc1ccc(C(=O)Oc2ccc(-c3cccc(OC(=O)c4ccc(OC(=O)c5ccc(OCCCCCCCCCCCC)cc5)cc4)c3)cc2)cc1 (repeat unit)
103.20	*CC(*)(C)C(=O)OCCCCCCCCCCOc1ccc(/N=N/c2ccc(C3OCC4(CO3)CC3C=CC4C3)cc2)cc1 (repeat unit)

The next lines start with the compound.

SMILES	glass transition temperature [°C]
*CC(*)(C)C(=O)Oc1cc(C)cc(C)c1 (repeat unit)	106.00
*CC(*)C(=O)OCCC#N (repeat unit)	4.00
*C(=O)c1ccc(N(*)C)cc1 (repeat unit)	197.00
*CCN(CCOC(=O)c1cc(OC2CCN(c3ccc(S(=O)(=O)C(F)(F)C(F)(F)C(F)(F)C(F)(F)C(F)(F)C(F)(F)C(F)(F)C(F)(F)F)cc3)CC2)cc(C(=O)O*)c1)c1ccc(S(=O)(=O)C(F)(F)C(F)(F)C(F)(F)C(F)(F)C(F)(F)C(F)(F)C(F)(F)C(F)(F)F)cc1 (repeat unit)	99.00
*/C=C/C1CC(*)C2C(=O)N(c3ccc(C)cc3)C(=O)C12 (repeat unit)	222.00
*CCS* (repeat unit) [Poly(ethylene sulfide)]	-25.83 ± 34
*/C=C/C(C(=O)OCc1ccccc1)C(*)C(=O)OCc1ccccc1 (repeat unit)	21.00
*CC(*)(C)C(=O)OCC(C)(C)C1OCC(C)(C)CO1 (repeat unit)	118.00
*ON(C(F)(F)C(*)(F)F)C(F)(F)C(F)(F)Br (repeat unit)	-17.00
*OC(=O)OCCOCCOC(=O)OC1COC2C(*)COC12 (repeat unit)	46.50
*CCCCCCCCC(c1ccc(O)cc1)C(*)c1ccc(O)cc1C (repeat unit)	-12.00
*c1ccc2c(c1)C(CCCCCCCC)(CCCCCCCC)c1cc(-c3cc(F)c(*)cc3F)ccc1-2 (repeat unit)	34.00
*C1C(*)C2CC1C(C(=O)OCCCc1ccccc1)C2C(=O)OCCCc1ccccc1 (repeat unit)	200.00
*CC(COCC=C)S* (repeat unit)	-59.00
*N=P(*)(CC1COCCOCCOCCO1)OCC1COCCOCCOCCO1 (repeat unit)	-40.00
*c1ccc(Cc2ccc(-n3c(=O)c4cc5c(=O)n(*)c(=O)c5cc4c3=O)cc2)cc1 (repeat unit)	351.00
*N=P(N=P(/N=S(/*)Oc1ccc(-c2ccccc2)cc1)(Oc1ccc(-c2ccccc2)cc1)Oc1ccc(-c2ccccc2)cc1)(Oc1ccc(-c2ccccc2)cc1)Oc1ccc(-c2ccccc2)cc1 (repeat unit)	69.00
*CCC(=O)N* (repeat unit) [Poly(propano-3-lactam)]	128.17 ± 24
*CC(*)c1ccccc1COCC (repeat unit)	74.00
*CCCOC(=O)c1cccc(C(=O)O*)c1 (repeat unit)	36.00
*/C=C/c1cc(OCCCCCCCC)c(*)cc1OC (repeat unit)	58.00
*/C=C/C(C)C(*)C(=O)OCCCN(C)c1ccc(N(C)C)cc1 (repeat unit)	11.50
*CC(OC(C)C)C1C(=O)OC(=O)C1* (repeat unit)	142.00
*CCCC(C)O[Si](C)(C)O* (repeat unit)	-81.00
*CCCCCCCCCCCCNC(=O)NCCCCCCNC(=O)N* (repeat unit)	49.00
*CC(*)c1ccc(S(=O)(=O)OCCC)cc1 (repeat unit)	217.00
*c1ccc(C2(c3ccc(-c4cc(-c5ccccc5)c5cc(C6(c7ccc8nc(*)cc(-c9ccccc9)c8c7)c7ccccc7-c7ccccc76)ccc5n4)cc3)c3ccccc3C(=O)c3ccccc32)cc1 (repeat unit)	385.00

Reference: the PolyMetriX glass transition set
